Measurements published in patent EP4563579A1, “MACROCYCLIC EGFR INHIBITOR, AND PREPARATION METHOD THEREFOR AND PHARMACEUTICAL USE THEREOF” (Abbisko Therapeutics Co., Ltd., priority 2022, dated 2024).

Key:
[1] = tested on: A431 WT; assay: Cell proliferation assay (CellTiter-Glo), A431 WT; type: cell-based; conditions: Homo sapiens, A-431; A431 WT cells, 72 hour incubation, CTG readout
Outline: (§1)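 Cells seeded overnight, then exposed 72 h at 37 °C, 5% CO2 to nine 3.16-fold dilutions (top final 10 µM, 0.1% DMSO), triplicate wells. Viability read by CellTiter-Glo luminescence, with a T0 plate read at dosing; IC50 (nM) by non-linear sigmoidal regression.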

[2] = tested on: Ba/F3 EGFR-L858R-T790M-C797S (LTC); assay: Cell proliferation assay (CellTiter-Glo), Ba/F3 LTC; type: cell-based; conditions: Mus musculus, BaF3; Ba/F3 EGFR-L858R-T790M-C797S cells, 72 hour incubation, CTG readout
Outline: as §1

[3] = tested on: Ba/F3 EGFR-DEL19-T790M-C797S (DTC); assay: Cell proliferation assay (CellTiter-Glo), Ba/F3 DTC; type: cell-based; conditions: Ba/F3 EGFR-DEL19-T790M-C797S cells, 72 hour incubation, CTG readout; read-out: IC50 BaF3 DTC
Outline: as §1

[4] = tested on: Ba/F3 EGFR-L858R-C797S (LC); assay: Cell proliferation assay (CellTiter-Glo), Ba/F3 LC; type: cell-based; conditions: Mus musculus, BaF3; Ba/F3 EGFR-L858R-C797S cells, 72 hour incubation, CTG readout
Outline: as §1

[5] = tested on: Ba/F3 EGFR-DEL19-C797S (DC); assay: Cell proliferation assay (CellTiter-Glo), Ba/F3 DC; type: cell-based; conditions: Mus musculus, BaF3; Ba/F3 EGFR-DEL19-C797S cells, 72 hour incubation, CTG readout
Outline: as §1

[6] = Pharmacokinetic experiment in mice; type: in vivo; conditions: male, mouse; ICR mice, single oral administration (PO), 10 mg/kg, plasma

SMILES	IC50 [1] [µM]	IC50 [2] [µM]	IC50 [3] [µM]	IC50 [4] [µM]	IC50 [5] [µM]	AUC(0-t) [6] [µg·h/mL]	Cmax [6] [µg/mL]	half-life [6] [h]
CCCS(=O)(=O)C[C@H]1CCN(c2nn3c4cc(ncc24)Nc2ccnc(n2)-c2cnn(C)c2OCC2(CCCC2)C3)C1 [Example 42, (S)-3'-(3-((propylsulfonyl)methyl)pyrrolidin-1-yl)-1'-methylspiro(cyclopentane-1 ,6'-8-oxa-3-aza-4(6,1)-pyrazolo[4,3-c]pyridina-2(2,4)-pyrimidina-1(4,5)-pyrazolacyclooctaphane)]	0.593	0.0012	0.0023	0.0019	0.0035	4.29	1.06	3
COC(=O)N[C@@H]1CCN(c2nn3c4cc(ncc24)Nc2ccnc(n2)-c2cnn(C)c2OCC2(CCCC2)C3)C1 [Example 51, Methyl (R)-(1-(1'-methylspiro(cyclopentane-1,6'-8-oxa-3-aza-4 (6,1)-pyrazolo[4,3-c]pyridina-2(2,4)-pyrimidina-1(4,5)-pyrazolacyclooctaphane)-3'-yl)pyrrolidin-3-yl)carbamate]	0.424	0.009	0.0101	0.0176	0.015	2.69	0.596	2.8
Cn1ncc2c1OCC1(CCCC1)Cn1nc(N3CC[C@H](NC(=O)C4CC4)C3)c3cnc(cc31)Nc1ccnc-2n1 [Example 54, (S)-N-(1-(1'-methylspiro(cyclopentane-1,6'-8-oxa-3-aza-4(6,1)-pyrazolo[4,3-c]pyridina-2(2,4)-pyrimidina-1(4,5) -pyrazolacyclooctaphane)-3' -yl)pyrrolidin-3-yl)cyclopropanecarboxamide]	0.654	0.012	0.0087	0.0316	0.0121	1.73	0.412	1.3
C[C@H]1CCOc2c(cnn2C)-c2nccc(n2)Nc2cc3c(cn2)c(-c2ccc(CN4CCN(C)CC4)n2C)nn31 [Positive Compoun d, reference compound]	0.45	0.008	0.0042	0.0115	0.0049	0.204	0.0327	4.8
